pIC50: −log10 of the molar value.
Legend:
CDK12/CyclinK = CDK12/CyclinK (Homo sapiens (Human), UniProt Q9NYV4); test: CDK12/CycK high ATP kinase assay (TR-FRET); format: biochemical; conditions: for pIC50: 2 mM ATP (high ATP), median, read-out: CDK12/CyclinK, 2 mM ATP (high ATP), IC50 - [mol/l] (median); for (IC50 CDK12 high ATP) to (Degradation DC50 CDK12) ratio: IC50 CDK12 at 2 mM ATP divided by CDK12 degradation DC50 (IF, CAL-120)
Procedure: In the context of the present invention, the term “IC50 CDK12 hATP” refers to the IC50 values obtained according to the assay described in this section (2.2) herein below, i.e. the IC50 values for the inhibition of CDK12 at high (2 mM) ATP.
CDK12/CycK-inhibitory activity of compounds of the present invention at 2 millimol/L adenosine-tri-phosphate (ATP) was quantified employing the TR-FRET (TR-FRET=Time Resolved Fluorescence Energy Transfer) based CDK12/CycK activity inhibition assay as described in the following paragraphs.
A complex of human recombinant CDK12 and human recombinant CycK (both N-terminally His-tagged, expression and purification as described above) was used as enzyme. As substrate for the kinase reaction biotinylated peptide biotin-Ahx-KFELLPTPPLSPSRRSGL (C-terminus in amid form) was used which can be purchased e.g. form the company Biosyntan (Berlin-Buch, Germany).
For the assay 50 nanoL of a 100 fold concentrated solution of the test compound in DMSO was pipetted into either a black low volume 384 well microtiter plate or a black 1536 well microtiter plate (both Greiner Bio-One, Frickenhausen, Germany), 2 microL of a solution of CDK12/CycK in aqueous assay buffer [25 millimol/L HEPES pH 7.5, 20 millimol/L MgCl2, 5 millimol/L β-glycerophosphate, 2 millimol/L EGTA, 1.0 millimol/L dithiothreitol, 0.01% (v/v) Nonidet-P40 (Sigma), 0.01% (w/v) bovine serum albumin] were added and the mixture was incubated for 15 min at 22° C. to allow pre-binding of the test compounds to the enzyme before the start of the kinase reaction. Then the kinase reaction was started by the addition of 3 microL of a solution ATP (3.33 millimol/L=>final conc. in the 5 microL assay volume is 2 millimol/L) and substrate (1.67 micromol/L=>final conc. in the 5 microL assay volume is 1 micromol/L) in assay buffer and the resulting mixture was incubated for a reaction time of 60 min at 22° C. The concentration of CDK12/CycK was adjusted depending of the activity of the enzyme lot and was chosen appropriate to have the assay in the linear range, typical concentrations were about 0.75 nanomol/L. The reaction was stopped by the addition of 3 microL of a solution of TR-FRET detection reagents (125 nanomol/L streptavidine-XL665 [Cisbio Bioassays, Codolet, France] and 0.67 nanomol/L anti-Phospho-c-Myc (Ser 62) (E1J4K)-antibody from Cell Signalling [#13748] and 2 nanomol/L LANCE EU-W1024 labeled anti-rabbit IgG antibody [Perkin-Elmer, product no. 0083]) in an aqueous EDTA-solution (133 millimol/L EDTA, 0.27% (w/v) bovine serum albumin in 66.7 millimol/L HEPES pH 7.5).
(§1) The resulting mixture was incubated 1 h at 22° C. to allow the formation of complex between the phosphorylated biotinylated peptide and the detection reagents. Subsequently the amount of phosphorylated substrate was evaluated by measurement of the resonance energy transfer from the Eu-chelate to the streptavidine-XL. Therefore, the fluorescence emissions at 620 nm and 665 nm after excitation at 350 nm was measured in a TR-FRET reader, e.g. a Pherastar FS (BMG Labtechnologies, Offenburg, Germany) or a Viewlux (Perkin-Elmer). The ratio of the emissions at 665 nm and at […] was taken as the measure for the amount of phosphorylated substrate. The data were normalised (enzyme reaction without inhibitor=0% inhibition, all other assay components but no enzyme=100% inhibition).

CDK9/CyclinT1 = CDK9/CyclinT1 (Homo sapiens (Human), UniProt P50750); test: CDK9/CycT1 high ATP kinase assay (TR-FRET); format: biochemical; conditions: 2 mM ATP (high ATP); median; read-out: CDK9/CyclinT1, 2 mM ATP (high ATP), IC50 - [mol/l] (median)
CDK9/CyclinT1, sequence (P50750 whole entry): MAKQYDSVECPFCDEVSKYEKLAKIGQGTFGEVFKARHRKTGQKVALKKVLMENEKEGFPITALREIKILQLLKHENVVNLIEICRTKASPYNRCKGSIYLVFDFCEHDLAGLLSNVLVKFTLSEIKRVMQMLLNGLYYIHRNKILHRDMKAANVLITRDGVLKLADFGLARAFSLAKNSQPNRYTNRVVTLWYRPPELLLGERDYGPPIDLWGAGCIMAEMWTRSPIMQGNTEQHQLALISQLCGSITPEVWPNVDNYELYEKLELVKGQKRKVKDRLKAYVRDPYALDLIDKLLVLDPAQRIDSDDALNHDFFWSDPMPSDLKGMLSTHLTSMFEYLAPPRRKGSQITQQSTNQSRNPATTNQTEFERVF
CDK9/CyclinT1, sequence (O60563 whole entry partner): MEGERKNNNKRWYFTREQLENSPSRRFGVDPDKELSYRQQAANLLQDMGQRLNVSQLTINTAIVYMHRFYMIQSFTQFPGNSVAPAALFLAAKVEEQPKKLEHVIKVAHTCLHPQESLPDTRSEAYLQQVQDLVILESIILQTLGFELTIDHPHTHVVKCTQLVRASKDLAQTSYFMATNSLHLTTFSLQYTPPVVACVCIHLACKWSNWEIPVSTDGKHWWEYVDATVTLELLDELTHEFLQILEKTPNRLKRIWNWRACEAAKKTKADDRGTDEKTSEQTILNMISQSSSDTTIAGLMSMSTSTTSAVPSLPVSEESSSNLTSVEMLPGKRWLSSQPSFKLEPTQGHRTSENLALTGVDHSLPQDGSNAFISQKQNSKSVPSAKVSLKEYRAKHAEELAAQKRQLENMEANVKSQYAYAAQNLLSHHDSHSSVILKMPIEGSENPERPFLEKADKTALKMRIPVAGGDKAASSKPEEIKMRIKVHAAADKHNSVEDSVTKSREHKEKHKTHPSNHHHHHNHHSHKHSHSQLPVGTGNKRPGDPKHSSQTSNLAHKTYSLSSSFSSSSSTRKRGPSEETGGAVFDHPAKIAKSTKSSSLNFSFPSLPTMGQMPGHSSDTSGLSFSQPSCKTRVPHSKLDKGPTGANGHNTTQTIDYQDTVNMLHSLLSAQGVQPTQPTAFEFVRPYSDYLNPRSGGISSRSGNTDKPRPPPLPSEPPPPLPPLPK
Procedure: CDK9/CycT1-inhibitory activity of compounds of the present invention at a high ATP concentration after preincubation of enzyme and test compounds was quantified employing the CDK9/CycT1 TR-FRET assay as described in the following paragraphs.
Recombinant full-length His-tagged human CDK9 and CycT1, expressed in insect cells and purified by Ni-NTA affinity chromatography, were purchased from Life Technologies (Cat. No PV4131). As substrate for the kinase reaction biotinylated peptide biotin-Ttds-YISPLKSPYKISEG (C-terminus in amide form) was used which can be purchased e.g. form the company JERINI peptide technologies (Berlin, Germany).
For the assay 50 nanoL of a 100 fold concentrated solution of the test compound in DMSO was pipetted into either a black low volume 384 well microtiter plate or a black 1536 well microtiter plate (both Greiner Bio-One, Frickenhausen, Germany), 2 microL of a solution of CDK9/CycT1 in aqueous assay buffer [50 millimol/L Tris/HCl PH 8.0, 10 millimol/L MgCl2, 1.0 millimol/L dithiothreitol, 0.1 millimol/L sodium ortho-vanadate, 0.01% (v/v) Nonidet-P40 (Sigma)] were added and the mixture was incubated for 15 min at 22° C. to allow pre-binding of the test compounds to the enzyme before the start of the kinase reaction. Then the kinase reaction was started by the addition of 3 microL of a solution of adenosine-tri-phosphate (ATP, 3.3 millimol/L=>final conc. in the 5 microL assay volume is 2 millimol/L) and substrate (1.25 micromol/L=>final conc. in the 5 microL assay volume is 0.75 micromol/L) in assay buffer and the resulting mixture was incubated for a reaction time of 25 min at 22° C. The concentration of CDK9/CycT1 was adjusted depending of the activity of the enzyme lot and was chosen appropriate to have the assay in the linear range, typical concentrations were in the range of 0.5 microg/ml. The reaction was stopped by the addition of 3 microL of a solution of TR-FRET detection reagents (0.33 micromol/L streptavidine-XL665 [Cisbio Bioassays, Codolet, France] and 1.67 nanomol/L anti-RB (pSer807/pSer811)-antibody from BD Pharmingen [#558389] and 2 nanomol/L LANCE EU-W1024 labeled anti-mouse IgG antibody [Perkin-Elmer, product no. AD0077]) in an aqueous EDTA-solution (167 millimol/L EDTA, 0.2% (w/v) bovine serum albumin in 100 millimol/L HEPES pH 7.5).
as §1, with “Pherastar” for “Pherastar FS”

CDK12/CyclinK, sequence (Q9NYV4 other isoform, or with tags, fused parts or gaps): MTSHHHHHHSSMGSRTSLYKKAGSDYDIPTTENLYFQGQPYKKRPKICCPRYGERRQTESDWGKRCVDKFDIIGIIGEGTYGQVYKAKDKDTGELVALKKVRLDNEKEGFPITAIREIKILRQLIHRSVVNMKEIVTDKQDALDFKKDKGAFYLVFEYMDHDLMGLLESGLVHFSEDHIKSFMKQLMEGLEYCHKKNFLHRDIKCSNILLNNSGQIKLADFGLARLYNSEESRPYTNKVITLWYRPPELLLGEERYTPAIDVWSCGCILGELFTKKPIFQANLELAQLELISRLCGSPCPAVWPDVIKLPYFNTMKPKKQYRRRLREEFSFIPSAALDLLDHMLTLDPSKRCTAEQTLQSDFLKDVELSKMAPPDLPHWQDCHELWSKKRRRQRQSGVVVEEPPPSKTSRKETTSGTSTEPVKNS
CDK12/CyclinK, sequence (O75909 other isoform, or with tags, fused parts or gaps partner): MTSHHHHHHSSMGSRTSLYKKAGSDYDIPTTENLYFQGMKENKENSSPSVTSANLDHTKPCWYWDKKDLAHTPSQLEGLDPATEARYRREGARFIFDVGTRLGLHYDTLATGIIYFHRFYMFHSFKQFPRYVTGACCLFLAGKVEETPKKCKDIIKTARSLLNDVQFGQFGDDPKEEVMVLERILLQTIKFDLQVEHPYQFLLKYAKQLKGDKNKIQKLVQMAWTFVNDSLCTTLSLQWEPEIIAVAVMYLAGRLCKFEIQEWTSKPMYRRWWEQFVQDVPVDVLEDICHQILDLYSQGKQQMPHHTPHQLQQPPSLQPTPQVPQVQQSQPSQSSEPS

SMILES | pIC50 (CDK12/CyclinK) | (IC50 CDK12 high ATP) to (Degradation DC50 CDK12) ratio (CDK12/CyclinK) | pIC50 (CDK9/CyclinT1)
FC(F)(F)c1ccc(-c2cnc(CNc3nc(N4CCOCC4)nc4c(Br)cnn34)[nH]2)cc1 [Example 3, 8-bromo-2-(morpholin-4-yl)-N-({5-[4-(trifluoromethyl)phenyl]-1H-imidazol-2-yl}methyl)pyrazolo[1,5-a][1,3,5]triazin-4-amine] | 6.57 | <0.09 | 4.81
FC(F)(F)c1ccc(-c2nnc(CNc3nc(N4CCOCC4)nc4c(Br)cnn34)[nH]2)cc1 [Example 1, 8-bromo-2-(morpholin-4-yl)-N-({5-[4-(trifluoromethyl)phenyl]-4H-1,2,4-triazol-3-yl}methyl)pyrazolo[1,5-a][1,3,5]triazin-4-amine] | 5.74 | 0.77 | 5.34
FC(F)(F)Oc1ccc(-c2cnc(CNc3nc(N4CCOCC4)nc4c(Br)cnn34)[nH]2)cc1 [Example 4, 8-bromo-2-(morpholin-4-yl)-N-({5-[4-(trifluoromethoxy)phenyl]-1H-imidazol-2-yl}methyl)pyrazolo[1,5-a][1,3,5]triazin-4-amine] | 7.46 | <0.03 | < 4.70
FC(F)(F)c1ccc(-c2nnc(CNc3nc(N4CCOCC4)nn4c(C(F)(F)F)cnc34)[nH]2)cc1 [Example 11, 2-(morpholin-4-yl)-7-(trifluoromethyl)-N-({5-[4-(trifluoromethyl)phenyl]-4H-1,2,4-triazol-3-yl}methyl)imidazo[2,1-f][1,2,4]triazin-4-amine] | 7.49 | 0.04 | < 4.70
FC(F)(F)Oc1ccc(-c2nnc(CNc3nc(N4CCOCC4)nc4c(Br)cnn34)[nH]2)cc1 [Example 2, 8-bromo-2-(morpholin-4-yl)-N-({5-[4-(trifluoromethoxy)phenyl]-4H-1,2,4-triazol-3-yl}methyl)pyrazolo[1,5-a][1,3,5]triazin-4-amine] | 6.12 | <0.27 | 5.20
FC(F)(F)c1ccc(-c2nnc(CNc3nc(N4CCOCC4)nn4c(C(F)(F)F)cnc34)[nH]2)cn1 [Example 20, 2-(morpholin-4-yl)-7-(trifluoromethyl)-N-({5-[6-(trifluoromethyl)pyridin-3-yl]-4H-1,2,4-triazol-3-yl}methyl)imidazo[2,1-f][1,2,4]triazin-4-amine] | 7.92 | <0.01 | 6.07
